Data published in patent US8466104B2, “Therapeutically active alpha MSH analogues” (AbbVie Inc., priority 2005, dated 2013).
“And” between values parts separate entries of the source, which are not always exact repeats. Equal entries are not always repeated. “Also recorded” adds a separate entry of the source. Where two headings read alike, the source gives them in different places.

Assays:
[1] = system: LPS induced TNF-α in plasma; test: Inhibition of LPS induced TNFa production in rats in vivo (experimental setup 2); parameters: species or system rat; settings: for inhibitory effect on plasma TNF-a compared to native a-MSH / TNF-a concentration in plasma, % of the maximal response (LPS-Vehicle) / dose at which the maximal inhibitory effect on TNF-a is achieved: iv LPS infusion; for TNF-a concentration in plasma, % of the maximal response (LPS-Vehicle): 200 μg/kg body weight iv, 120 minutes after initiation of LPS infusion; for dose at which the maximal inhibitory effect on TNF-a is achieved: doses 50, 200, 1000 μg/kg tested
Experimental: Inhibition of LPS Induced TNFa Production in Rats In Vivo
Experimental animals. Female Wistar rats (220-240 g) are obtained from the Charles River, Sulzfeld, Germany, and housed in a temperature- (22-24° C.) and moisture-controlled (40-70%) room with a 12 h light-dark cycle (light on from 6:00 A.M. to 6:00 P.M.). The rats are maintained on a standard rodent diet with 140 mmol/kg of sodium, 275 mmol/kg potassium and 23% protein (Altromin International, Lage, Germany) and have free access to water.
Animal preparation. […] After instrumentation, the animals are housed individually for 7-10 days until the day of the experiment.
Experimental protocol. Prior to the experiments all rats are adapted to the restraining cage used for the experiments by training them for two periods of two hours each. On the day of the experiment, the animal is transferred to a restraining cage, and an intravenous infusion of vehicle solution containing 150 mM glucose is started. The infusion rate is 0.5 ml/h throughout the experiment. After a short adaptation period, infusion of lipopolysaccharide (LPS) is started. LPS (E coli serotype 0127 B8, L 3129, Sigma, St. Louis, USA) is given at a dose of 4 mg/kg body weight delivered as an i.v. infusion over 1 hour. Arterial blood samples of 0.3 ml are taken 60, 90, and 120 minutes after start of the LPS infusion and replaced immediately with heparinized blood from a normal donor rat.
In addition to LPS infusion all rats are treated with a bolus injection of: • Vehicle (0.5 mL isotonic saline); • a-MSH in one of the following doses: 50 μg/kg bw; 200 μg/kg/bw or 1000 μg/kg bw; • Test compound in one of the following doses: 50 μg/kg bw; 200 μg/kg/bw or 1000 μg/kg bw.
Measurement of TNF-α in plasma: The blood samples are collected in a prechilled test tube with 0.5 mM EDTA, pH 7.4, and 20×10^6 IU/ml aprotinin. After centrifugation at 4° C., plasma samples are transferred to pre-chilled test tubes and stored at −20° C. for later measurements of TNF-α. TNF-α in plasma is determined by an ELISA (Biotrak, Amersham, UK).
Statistical analyses. Results are presented as means±SE. A two-way ANOVA for repeated measures is used to test for differences between groups. In case of P<0.05, the differences between corresponding periods are evaluated by unpaired t-tests with Bonferroni's correction of the level of significance.

[2] = system: neutrophil and eosinophil infiltration in BALF after LPS inhalation; test: Inhibition of neutrophil and eosinophil infiltration after LPS inhalation in rats (experimental setup 3); assay type: in vivo, rat; settings: for number of eosinophils within the BALF / number of neutrophils within the BALF: 24 hours after LPS inhalation, 200 μg/kg bw iv bid; for effect on neutrophils within the BALF compared to a-MSH / reduction of eosinophils in the BALF / lungs: LPS inhalation
Experimental: Inhibition of Neutrophil and Eosinophil Infiltration after LPS Inhalation in Rats.
Male Sprague-Dawley rats (weight ˜200 g) from M&B A/S, DK-8680 Ry, Denmark, are used for all experiments. The rats are caged in standard cages type 3 and housed in a temperature- (22-24° C.) and moisture-controlled (40-70%) room with a 12 h light-dark cycle (light on from 6:00 A.M. to 6:00 P.M.). The diet is autoclaved Altromin 1324 special formulation, Produced by Altromin Denmark, Chr. Pedersen A/S, 4100 Ringsted, Denmark. Diet and water are administered ad libitum.
After acclimatization the rats are randomly allocated to the experimental groups and dosed i.v. with test compound at start of LPS-induction and once again 8 hours after LPS-induction.
Rats in groups of 3 are anaesthetized with 0.1 ml hypnorm/dormicum pr. 100 g and dosed i.v with the test compound. Immediately after dosing they are placed in the inhalation chamber where they are subjected to a nebulized LPS solution. The concentration of LPS is 1 mg/ml. Dosing time is 15 minutes. The rats are euthanized 24 hours after dosing with the test substance. At termination the rats are euthanized with CO2/O2. Then bronchoalveolar lavage is performed by installing and withdrawing 6×2.5 ml of PBS to the right lung. Lavage is done with the lungs remaining in the thorax after removing sternum and costae. The connection to the left lung is tied off during this procedure. Bronchoalveolar fluid (BALF) is centrifuged at 1000 rpm at 4° C. for 10 minutes. After removing the supernatant the cell pellet is resuspended in 0.5 ml PBS and total cell count performed. Two smears of BALF stained with May-Grüjwald Giemsa stain is made from each rat. BALF from each rat is subjected to total cell count and to differential count of leucocytes.
In addition to LPS infusion all rats are treated with bolus injections of either:
• a-MSH: 200 μg/kg/bw • a-MSH analogue: 200 μg/kg/bw
Data are presented as mean±S.E. Between group comparisons are performed by one way analysis of variance followed by Fishers Least Significant Difference test. Differences are considered significant at the 0.05 level.

Substance	reduction of TNF-a accumulation during iv infusion of LPS [1]	inhibitory effect on plasma TNF-a compared to native a-MSH [1]	TNF-a concentration in plasma, % of the maximal response (LPS-Vehicle) [1]	dose at which the maximal inhibitory effect on TNF-a is achieved [1] [μg/kg body weight]	inhibitory effect on plasma TNF-a compared to native a-MSH ([1]; listed as SEQ ID NO: 1*)	reduction of TNF-a accumulation during iv infusion of LPS ([1]; listed as SEQ ID NO: 1*)	number of eosinophils within the BALF [2]	effect on neutrophils within the BALF compared to a-MSH [2]	reduction of eosinophils in the BALF / lungs [2]	reduction of eosinophils in the BALF / lungs ([2]; listed as SEQ ID NO:1*)	inhibitory effect on plasma TNF-a compared to native a-MSH ([1]; listed as SEQ ID NO: 5*)	reduction of TNF-a accumulation during iv infusion of LPS ([1]; listed as SEQ ID NO: 5*)	number of neutrophils within the BALF [2]	effect on neutrophils within the BALF compared to a-MSH ([2]; listed as SEQ ID NO: 5*)	reduction of eosinophils in the BALF / lungs ([2]; listed as SEQ ID NO: 5*)	inhibitory effect on plasma TNF-a compared to native a-MSH ([1]; listed as SEQ ID NO: 9*)	reduction of TNF-a accumulation during iv infusion of LPS ([1]; listed as SEQ ID NO: 9*)
Ac-Lys-Lys-Lys-Lys-Lys-Lys-Ser-Tyr-Ser-Met-Glu-His-Phe-Arg-Trp-Gly-Lys-Pro-Val-NH2 (Ac-KKKKKKSYSMEHFRWGKPV-NH2) [a-MSH analogue #1]	reduce TNF-a accumulation	markedly more pronounced	9±1%	200	higher degree	significantly inhibit	49.0±10.5 ×10^5cells	similar	marked reduction of eosinophils	significantly inhibits	–	–	–	–	–	–	–
Ac-Lys-Lys-Lys-Lys-Lys-Lys-Ser-Tyr-Ser-Nle-Glu-His-(D-Phe)-Arg-Trp-Gly-Lys-Pro-Val-NH2 (KKKKKKSYSXEHFRWGKPV; N-acetyl, Nle, D-Phe, C-amide) [a-MSH analogue #2]	reduce TNF-a accumulation	markedly more pronounced	9±1%	200	–	–	34.0±8.6 ×10^5cells	much more pronounced inhibitory effects	marked reduction of eosinophils	–	higher degree	significantly inhibit	9.1±2.4 ×10^5cells	markedly inhibited neutrophil infiltration to a much higher degree	significantly inhibits	–	–
Ac-Lys-Lys-Lys-Lys-Lys-Lys-Ser-Tyr-Ser-Nle-Glu-His-D-Nal-Arg-Trp-Gly-Lys-Pro-Val-NH2 (KKKKKKSYSXEHXRWGKPV; not fully specified; N-acetyl, Nle, D-Nal, C-amide) [a-MSH analogue #3]	reduce TNF-a accumulation	markedly more pronounced	11±3%	200	–	–	–	–	–	–	–	–	–	–	–	higher degree	significantly inhibit
Ser-Tyr-Ser-Met-Glu-His-Phe-Arg-Trp-Gly-Lys-Pro-Val [a-MSH, reference compound]	reduce TNF-a accumulation; also recorded: reduce TNF-α accumulation	–	17±3% and 17±30%	200	–	–	26.7±4.3 ×10^5cells	–	marked reduction of eosinophils	–	–	–	20.1±2.5 ×10^5cells	–	–	–	–
